Results taken from ChEMBL document CHEMBL5360649, “Potential Broad-Spectrum Antimicrobial, Wound Healing, and Disinfectant Cationic Peptide Crafted from Snake Venom” (J Med Chem, 2023).
The source made the active and inactive calls. The calls are words filed in the database; no cut-off is given here.

Experiments:
Staphylococcus aureus = assay: Antibiofilm activity in methicillin-resistant Staphylococcus aureus assessed as biofilm clearance incubated for 24 hrs by Congo red dye based fluorescence analysis; type: functional, organism-based
Pseudomonas aeruginosa [1] = assay: Antibiofilm activity against Pseudomonas aeruginosa in the presence of Cl-; type: functional, organism-based
Pseudomonas aeruginosa [2] = assay: Antibacterial activity against Pseudomonas aeruginosa assessed as inhibition of bacterial growth at 1.25 to 40 uM by microtiter plate reader analysis; type: functional, organism-based; conditions: dose 1.25-40 µM, time 0.5-8.5 hrs, TDE = time-dependent effect
[3] = Hemolytic activity in human RBC assessed as hemolysis at 3.125 to 12.5 uM incubated for 30 mins under shaking condition by multiplate reader analysis relative to control; type: toxicity, cell-based, Erythrocyte; conditions: human red blood cells (RBC), dose 3.125-12.5 µM, read-out: Activity
Escherichia coli = assay: Antibacterial activity against Escherichia coli ATCC CRM-11229 assessed as inhibition of bacterial growth at 25 to 100 uM incubated overnight by spotting assay; type: functional, organism-based; conditions: dose 25-100 µM
Pseudomonas aeruginosa [4] = assay: Induction of morphological changes in Pseudomonas aeruginosa assessed as membrane damage at MIC concentration incubated for 60 mins by SEM analysis; type: functional, organism-based
[5] = Stability in human serum assessed as half-life at 1 mM by HPLC analysis; type: ADME, cell-free

Question: Which Activity (Staphylococcus aureus) does the source give for H-FLPIIKWVKKFFWRWR-OH here?
Answer: Dose-Dependent Effect

Question: And the Activity (Pseudomonas aeruginosa [1])?
Answer: Active

Question: And the Activity (Pseudomonas aeruginosa [2])?
Answer: Tde

Question: What about the hemolysis at 0.5 h, up to 12.5 µM [3] of the same substance?
Answer: 3.22%

Question: What about the Activity (Escherichia coli) of the same substance?
Answer: Active

Question: And the Activity (Pseudomonas aeruginosa [4])?
Answer: Active

Question: What about the half-life at 1000 µM [5] of the same substance?
Answer: ~1440 min
